pIC50: −log10 of the molar value. Like-named read-outs stand apart in the source and are kept apart here.
Assays:
[1] = target: GSK3b (GST-full length GSK3b) (Homo sapiens (Human), UniProt P49841); test: GSK3b TR-FRET kinase assay; format: biochemical
Procedure, shortened: (§1)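 In this time-resolved FRET format, kinase reactions contained 200 nM biotinylated, S645-phosphorylated glycogen synthase 631-650 peptide and either isoform-specific ATP (2 μM GSK3b, 4 μM GSK3α) or 1 mM ATP. They were quenched with EDTA after 100 min at ambient temperature. Inhibition curves gave IC50 values.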

[2] = target: GSK3α (GST-full length GSK3α) (Homo sapiens (Human), UniProt P49840); test: GSK3α TR-FRET kinase assay; format: biochemical
Sequence of GSK3α (GST-full length GSK3α) (P49840 whole entry): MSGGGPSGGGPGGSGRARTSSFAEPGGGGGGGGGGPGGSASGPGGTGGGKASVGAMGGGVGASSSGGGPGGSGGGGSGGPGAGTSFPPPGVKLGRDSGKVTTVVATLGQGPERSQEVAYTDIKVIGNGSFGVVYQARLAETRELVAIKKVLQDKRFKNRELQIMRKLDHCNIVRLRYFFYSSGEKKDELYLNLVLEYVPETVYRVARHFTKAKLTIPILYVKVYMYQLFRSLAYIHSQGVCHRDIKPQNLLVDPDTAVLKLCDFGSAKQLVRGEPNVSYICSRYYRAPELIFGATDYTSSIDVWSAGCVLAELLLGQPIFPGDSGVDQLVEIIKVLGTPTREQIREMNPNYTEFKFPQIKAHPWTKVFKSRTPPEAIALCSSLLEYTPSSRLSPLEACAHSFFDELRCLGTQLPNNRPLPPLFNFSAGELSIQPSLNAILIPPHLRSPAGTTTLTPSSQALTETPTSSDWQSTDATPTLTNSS
Procedure, shortened: as §1

[3] = 1 nM GSK3b, 2 μM ATP, 30 minute preincubation, Table 16, read-out: GSK3-B TR-FRET BIOCHEMICAL (TR-FRET), IC50
[4] = 1 nM GSK3α, 4 μM ATP, 30 minute preincubation, Table 16, read-out: GSK3-A TR-FRET BIOCHEMICAL (TR-FRET), IC50
[5] = read-out: GSK3-B (TR-FRET 1 mM ATP), GMean, IC50, 1 mM ATP, geometric mean
[6] = GSK3-B (TR-FRET 1 mM ATP), GMean, IC50, 1 mM ATP, geometric mean
[7] = GSK3-A (TR-FRET 1 mM ATP), GMean, IC50, 1 mM ATP, geometric mean
[8] = 1 nM GSK3b, 2 μM ATP, 30 minute preincubation, read-out: GSK3-B TR-FRET BIOCHEMICAL (TR-FRET), IC50
[9] = 1 nM GSK3α, 4 μM ATP, 30 minute preincubation, read-out: GSK3-A TR-FRET BIOCHEMICAL (TR-FRET), IC50
[10] = 1 nM GSK3b, 2 μM ATP, 30 minute preincubation, Table 16, read-out: GSK3-B TR-FRET BIOCHEMICAL (TR-FRET)
[11] = 1 nM GSK3α, 4 μM ATP, 30 minute preincubation, Table 16, read-out: GSK3-A TR-FRET BIOCHEMICAL (TR-FRET)
[12] = read-out: GSK3-A (TR-FRET 1 mM ATP), GMean, IC50, 1 mM ATP, geometric mean

Sequence of GSK3b (GST-full length GSK3b) (P49841 whole entry, canonical isoform): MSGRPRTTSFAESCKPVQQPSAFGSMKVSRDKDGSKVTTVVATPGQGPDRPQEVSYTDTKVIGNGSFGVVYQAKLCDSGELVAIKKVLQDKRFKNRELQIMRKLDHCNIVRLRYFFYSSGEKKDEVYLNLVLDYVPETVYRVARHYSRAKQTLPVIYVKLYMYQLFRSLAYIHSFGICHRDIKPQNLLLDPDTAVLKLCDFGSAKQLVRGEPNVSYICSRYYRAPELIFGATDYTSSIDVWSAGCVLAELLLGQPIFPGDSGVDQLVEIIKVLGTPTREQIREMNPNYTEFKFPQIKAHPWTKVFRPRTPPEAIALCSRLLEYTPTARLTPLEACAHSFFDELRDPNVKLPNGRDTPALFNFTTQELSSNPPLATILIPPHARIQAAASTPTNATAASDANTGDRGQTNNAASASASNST

SMILES	pIC50 [1, 3]	pIC50 [2, 4]	further results
CC[C@H]1C[C@@]2(CCO1)C1=C(CC(C)(C)CC1=O)Nc1n[nH]cc12 [Compound 907329]	5.30 to 6.00	6.00 to 7.00	–
CCC1(c2cccc(N(C)C(=O)CN3CCCC3)c2)C2=C(CC(C)(C)CC2=O)Nc2n[nH]cc21 (stereo not shown) [Compound 909202]	5.30 to 6.00	6.00 to 7.00	–
CCC1(c2cc(N3CCOCC3)ccc2F)C2=C(CC(C)(C)CC2=O)Nc2n[nH]cc21 (stereo not shown) [Compound 909203]	5.30 to 6.00	6.00 to 7.00	–
CCC1(c2cccc(S(=O)(=O)C3CC3)c2)C2=C(CC(C)(C)CC2=O)Nc2n[nH]cc21 (stereo not shown) [Compound 909204]	≥ 7.00	≥ 7.00	pIC50 [1, 5]: 6.00 to 7.00
CCCC(C(C)=O)c1cccc(C2(CC)C3=C(CC(C)(C)CC3=O)Nc3n[nH]cc32)c1 (stereo not shown) [Compound 909205]	≥ 7.00	≥ 7.00	–
CC1(C)CC(=O)C2=C(C1)Nc1n[nH]cc1C21CCN(S(=O)(=O)C2CCCC2)CC1 [Compound 909206]	≥ 7.00	≥ 7.00	pIC50 [1, 6]: 6.00 to 7.00; pIC50 [2, 7]: ≥ 7.00
CC1(C)CC(=O)C2=C(C1)Nc1n[nH]cc1C21CCN(S(=O)(=O)CC2CC2)CC1 [Compound 909207]	–	–	pIC50 [1, 8]: ≥ 7.00; pIC50 [1, 6]: 6.00 to 7.00; pIC50 [2, 9]: ≥ 7.00; pIC50 [2, 7]: ≥ 7.00
O=C1CC2(CCC2)CC2=C1C1(CCOCC1)c1c[nH]nc1N2 [Compound 909208]	–	–	pIC50 [1, 10]: 6.00 to 7.00; pIC50 [2, 11]: ≥ 7.00
CC1(C)CC(=O)C2=C(C1)Nc1n[nH]cc1C21CN(c2ccncn2)C1 [Compound 909209]	5.30 to 6.00	5.30 to 6.00	–
CC1(C)CC(=O)C2=C(C1)Nc1n[nH]cc1[C@]21C[C@H](OCc2ccccc2)C1 [Compound 909210]	–	–	pIC50 [1, 10]: 6.00 to 7.00; pIC50 [2, 11]: 6.00 to 7.00
CC1(C)CC(=O)C2=C(C1)Nc1n[nH]cc1[C@]21C[C@@H](OCc2ccccc2)C1 [Compound 909211]	–	–	pIC50 [1, 10]: 6.00 to 7.00; pIC50 [2, 11]: ≥ 7.00
CC[C@]1(c2cc(-c3ccnc(C)c3)ccc2F)C2=C(CC(C)(C)CC2=O)Nc2n[nH]cc21 [Compound 909213]	< 5.30	< 5.30	–
CCN(C(C)=O)c1cccc([C@]2(CC)C3=C(CC(C)(C)CC3=O)Nc3n[nH]cc32)c1 [Compound 909214]	≥ 7.00	≥ 7.00	–
CCN(C(C)=O)c1cccc(C2(CC)C3=C(CC(C)(C)CC3=O)Nc3n[nH]cc32)c1 (stereo not shown) [Compound 909215]	5.30 to 6.00	6.00 to 7.00	–
CC[C@@]1(c2ccccc2)C2=C(Nc3n[nH]cc31)[C@@H](C)C[C@@H](C)C2=O [Compound 909216]	6.00 to 7.00	6.00 to 7.00	–
CC[C@]1(c2ccccc2)C2=C(Nc3n[nH]cc31)[C@@H](C)C[C@@H](C)C2=O [Compound 909217]	5.30 to 6.00	6.00 to 7.00	–
CC[C@]1(c2ccccc2)C2=C(Nc3n[nH]cc31)[C@H](C)C[C@H](C)C2=O [Compound 909218]	< 5.30	< 5.30	–
CC[C@@]1(c2ccccc2)C2=C(Nc3n[nH]cc31)[C@H](C)C[C@H](C)C2=O [Compound 909219]	< 5.30	< 5.30	–
CC[C@@]1(c2cc(-c3cnn(C)c3)ccc2F)C2=C(CC(C)(C)CC2=O)Nc2n[nH]cc21 [Compound 909220]	6.00 to 7.00	≥ 7.00	–
CC[C@]1(c2cc(-c3cnn(C)c3)ccc2F)C2=C(CC(C)(C)CC2=O)Nc2n[nH]cc21 [Compound 909223]	< 5.30	< 5.30	–
CC1(C)CC(=O)C2=C(C1)Nc1n[nH]cc1C21COC2(CN(C(=O)OC(C)(C)C)C2)C1 (stereo not shown) [Compound 911083]	–	–	pIC50 [1, 8]: 5.30 to 6.00; pIC50 [2, 9]: 6.00 to 7.00
CCC1(c2cccc(C(F)(F)F)c2)C2=C(CC(C)NC2=O)Nc2n[nH]cc21 (stereo not shown) [Compound 911956]	–	–	pIC50 [1, 8]: 6.00 to 7.00; pIC50 [2, 9]: ≥ 7.00
CC1OCCC12C1=C(CC(C)(C)CC1=O)Nc1n[nH]cc12 (stereo not shown) [Compound 911958]	< 5.30	< 5.30	–
CC[C@H]1CCN1c1cccc([C@@]2(CC)C3=C(CC(C)(C)CC3=O)Nc3n[nH]cc32)c1 [Compound 911972]	< 5.30	5.30 to 6.00	–
CC1(C)CC(=O)C2=C(C1)Nc1n[nH]cc1C21COC2(CCC2)C1 (stereo not shown) [Compound 911973]	–	–	pIC50 [1, 8]: 6.00 to 7.00; pIC50 [2, 9]: 6.00 to 7.00
CCC1(c2cccc(N(C)c3cccnn3)c2)C2=C(CC(C)(C)CC2=O)Nc2n[nH]cc21 (stereo not shown) [Compound 911975]	≥ 7.00	≥ 7.00	pIC50 [1, 5]: 5.30 to 6.00; pIC50 [2, 12]: 6.00 to 7.00

SMILES	pIC50 [1, 3]	pIC50 [2, 4]	further results
CCC1(c2cccc(N(C)c3cccnn3)c2)C2=C(CC(C)(C)CC2=O)Nc2n[nH]cc21 (stereo not shown) [Compound 911976]	< 5.30	6.00 to 7.00	–
CCC1(c2cccc(-c3ccnc(OC)c3)c2)C2=C(CC(C)(C)CC2=O)Nc2n[nH]cc21 (stereo not shown) [Compound 911989]	< 5.30	5.30 to 6.00	–
CC[C@@]1(c2cccc(-c3c(C)nn(C)c3C)c2)C2=C(CC(C)(C)CC2=O)Nc2n[nH]cc21 [Compound 911990]	≥ 7.00	≥ 7.00	pIC50 [1, 5]: 6.00 to 7.00; pIC50 [2, 12]: ≥ 7.00
CCC1(c2cccc(-c3c(C)nn(C)c3C)c2)C2=C(CC(C)(C)CC2=O)Nc2n[nH]cc21 (stereo not shown) [Compound 911991]	< 5.30	6.00 to 7.00	–
CCC1(c2cccc(-c3ccnn3C)c2)C2=C(CC(C)(C)CC2=O)Nc2n[nH]cc21 (stereo not shown) [Compound 911992]	≥ 7.00	≥ 7.00	pIC50 [1, 5]: 6.00 to 7.00; pIC50 [2, 12]: ≥ 7.00
CCC1(c2cccc(N3CCc4ccncc43)c2)C2=C(CC(C)(C)CC2=O)Nc2n[nH]cc21 (stereo not shown) [Compound 912004]	< 5.30	5.30 to 6.00	–
CC[C@]1(c2cccc(C(F)(F)F)c2)C2=C(CCN(Cc3ccccc3)C2=O)Nc2n[nH]cc21 [Compound 912006]	–	–	pIC50 [1, 8]: < 5.30; pIC50 [2, 9]: < 5.30
CCC1(c2cccc(N(CCc3ccccc3)C(C)=O)c2)C2=C(CC(C)(C)CC2=O)Nc2n[nH]cc21 (stereo not shown) [Compound 912064]	≥ 7.00	≥ 7.00	–
CCC1(c2cccc(N(C)C(=O)CCc3ccccc3)c2)C2=C(CC(C)(C)CC2=O)Nc2n[nH]cc21 (stereo not shown) [Compound 912066]	6.00 to 7.00	≥ 7.00	–
CCC1(c2cccc(N(C)C(=O)c3cnn(C)c3)c2)C2=C(CC(C)(C)CC2=O)Nc2n[nH]cc21 (stereo not shown) [Compound 912068]	6.00 to 7.00	≥ 7.00	–
CCC1(c2cccc(N(C(C)=O)C3CCCC3)c2)C2=C(CC(C)(C)CC2=O)Nc2n[nH]cc21 (stereo not shown) [Compound 912069]	≥ 7.00	≥ 7.00	–
CCC1(c2cccc(N(C)C(=O)Cc3ccccc3)c2)C2=C(CC(C)(C)CC2=O)Nc2n[nH]cc21 (stereo not shown) [Compound 912071]	≥ 7.00	≥ 7.00	–
Cc1[nH]nc2c1C1(CCOCC1)C1=C(CC(C)(C)C(F)C1=O)N2 (stereo not shown) [Compound 912072]	–	–	pIC50 [1, 10]: 6.00 to 7.00; pIC50 [2, 11]: 6.00 to 7.00
CC1(C)CC(=O)C2=C(C1)Nc1n[nH]cc1C21CN(CC(F)F)C1 [Compound 912073]	–	–	pIC50 [1, 10]: 6.00 to 7.00; pIC50 [2, 11]: 6.00 to 7.00
CC1(C)CC(=O)C2=C(C1)Nc1n[nH]cc1C21CN(CC(F)(F)F)C1 [Compound 912074]	–	–	pIC50 [1, 10]: 6.00 to 7.00; pIC50 [2, 11]: ≥ 7.00
CC1(C)CC(=O)C2=C(C1)Nc1n[nH]cc1C21CNC1 [Compound 912075]	< 5.30	5.30 to 6.00	–
CC1(C)CC(=O)C2=C(C1)Nc1n[nH]cc1C21CN(C2COC2)C1 [Compound 912076]	–	–	pIC50 [1, 10]: 5.30 to 6.00; pIC50 [2, 11]: 6.00 to 7.00
CC1(C)CC(=O)C2=C(C1)Nc1n[nH]cc1C21CN(c2ccncc2)C1 [Compound 912077]	< 5.30	< 5.30	–
C[C@H]1CC(=O)C2=C(C1)Nc1n[nH]cc1C21CCOCC1 [Compound 912078]	6.00 to 7.00	6.00 to 7.00	–
C[C@@H]1CC(=O)C2=C(C1)Nc1n[nH]cc1C21CCOCC1 [Compound 912079]	6.00 to 7.00	6.00 to 7.00	–
O=C1C2=C(Nc3n[nH]cc3C23CCOCC3)[C@H]2CC[C@@H]1C2 [Compound 912080]	–	–	pIC50 [1, 10]: 6.00 to 7.00; pIC50 [2, 11]: 6.00 to 7.00
O=C1C2=C(Nc3n[nH]cc3C23CCOCC3)[C@@H]2CC[C@H]1C2 [Compound 912081]	–	–	pIC50 [1, 10]: 5.30 to 6.00; pIC50 [2, 11]: 6.00 to 7.00
CC1(C)CC(=O)C2=C(C1)Nc1n[nH]cc1C21CCC(c2ccccc2)CC1 (stereo not shown) [Compound 912084]	–	–	pIC50 [1, 10]: ≥ 7.00; pIC50 [2, 11]: ≥ 7.00
CCC1(c2cccc(C3CCOC(C)(C)C3)c2)C2=C(CC(C)(C)CC2=O)Nc2n[nH]cc21 (stereo not shown) [Compound 912088]	< 5.30	6.00 to 7.00	–
CCC1(c2cccc(C3CCOC(C)(C)C3)c2)C2=C(CC(C)(C)CC2=O)Nc2n[nH]cc21 (stereo not shown) [Compound 912089]	6.00 to 7.00	6.00 to 7.00	–
CCC1(c2cccc(C3CCOC(C)(C)C3)c2)C2=C(CC(C)(C)CC2=O)Nc2n[nH]cc21 (stereo not shown) [Compound 912090]	< 5.30	6.00 to 7.00	–
